Results published in ChEMBL document CHEMBL4373676, “Non-lethal growth inhibition by arresting the starch utilization system of clinically relevant human isolates of Bacteroides dorei” (Medchemcomm, 2019).
Active and inactive are the calls of the source. The calls are words filed in the database; no cut-off is given here.

How the values were obtained:
[1] = Inhibition of starch utilizing system in Bacteroides dorei JRO2 assessed as microbial growth at 100 uM measured at 30 mins interval with 15 secs shaking for up to 48 hrs in presence of pullulan by spectrophotometric analysis relative to untreated control; parameters: scale not given: the % may be the effect or the level left; conditions: Phocaeicola dorei
Phocaeicola dorei [2] = assay: Effect on growth of Bacteroides dorei JRO2 assessed as microbial growth at 100 uM measured at 30 mins interval with 15 secs shaking for up to 48 hrs in presence of glucose by spectrophotometric analysis relative to untreated control; assay type: organism-based; conditions: in vivo
[3] = Inhibition of starch utilization system in Bacteroides dorei JRO3 assessed as bacterial growth at 5 uM after 13.5 hrs in presence of pullulan by spectrophotometric analysis relative to untreated control; parameters: scale not given: the % may be the effect or the level left; conditions: Phocaeicola dorei
[4] = Inhibition of starch utilization system in Bacteroides dorei JRO3 assessed as bacterial growth at 1 uM after 13.5 hrs in presence of pullulan by spectrophotometric analysis relative to untreated control; parameters: scale not given: the % may be the effect or the level left; conditions: Phocaeicola dorei
[5] = Inhibition of starch utilization system in Bacteroides dorei JRO3 assessed as reduction in bacterial growth at 0.1 uM after 13.5 hrs in presence of pullulan by spectrophotometric analysis; conditions: Phocaeicola dorei
Phocaeicola dorei [6] = assay: Effect on growth of Bacteroides dorei JRO1 assessed as microbial growth at 100 uM measured at 30 mins interval with 15 secs shaking for up to 48 hrs in presence of glucose by spectrophotometric analysis relative to untreated control; assay type: organism-based; conditions: in vivo
[7] = Inhibition of starch utilization system in Bacteroides dorei JRO3 assessed as reduction in bacterial growth at 0.1 uM after 14 hrs in presence of potato starch by spectrophotometric analysis; conditions: Phocaeicola dorei
[8] = Inhibition of starch utilizing system in Bacteroides dorei JRO1 assessed as microbial growth at 100 uM measured at 30 mins interval with 15 secs shaking for up to 48 hrs in presence of potato starch by spectrophotometric analysis relative to untreated control; parameters: scale not given: the % may be the effect or the level left; conditions: Phocaeicola dorei
Phocaeicola dorei [9] = assay: Effect on growth of Bacteroides dorei JRO3 assessed as microbial growth at 100 uM measured at 30 mins interval with 15 secs shaking for up to 48 hrs in presence of maltose by spectrophotometric analysis relative to untreated control; assay type: organism-based; conditions: in vivo
[10] = Inhibition of starch utilizing system in Bacteroides dorei JRO3 assessed as microbial growth at 100 uM measured at 30 mins interval with 15 secs shaking for up to 48 hrs in presence of potato starch by spectrophotometric analysis relative to untreated control; parameters: scale not given: the % may be the effect or the level left; conditions: Phocaeicola dorei
[11] = Inhibition of starch utilizing system in Bacteroides dorei JRO3 assessed as microbial growth at 100 uM measured at 30 mins interval with 15 secs shaking for up to 48 hrs in presence of pullulan by spectrophotometric analysis relative to untreated control; parameters: scale not given: the % may be the effect or the level left; conditions: Phocaeicola dorei
Phocaeicola dorei [12] = assay: Effect on growth of Bacteroides dorei JRO2 assessed as microbial growth at 100 uM measured at 30 mins interval with 15 secs shaking for up to 48 hrs in presence of maltose by spectrophotometric analysis relative to untreated control; assay type: organism-based; conditions: in vivo
Phocaeicola dorei [13] = assay: Effect on growth of Bacteroides dorei JRO4 assessed as microbial growth at 100 uM measured at 30 mins interval with 15 secs shaking for up to 48 hrs in presence of maltose by spectrophotometric analysis relative to untreated control; assay type: organism-based; conditions: in vivo
[14] = Inhibition of starch utilizing system in Bacteroides dorei JRO1 assessed as microbial growth at 100 uM measured at 30 mins interval with 15 secs shaking for up to 48 hrs in presence of pullulan by spectrophotometric analysis relative to untreated control; parameters: scale not given: the % may be the effect or the level left; conditions: Phocaeicola dorei
[15] = Inhibition of starch utilization system in Bacteroides dorei JRO3 assessed as increase in lag time at 0.1 to 10 uM up to 48 hrs in presence of potato starch by spectrophotometric analysis; conditions: Phocaeicola dorei
[16] = Inhibition of starch utilization system in Bacteroides dorei JRO3 assessed as increase in doubling time at 0.1 to 10 uM in presence of potato by spectrophotometric analysis; conditions: Phocaeicola dorei
[17] = Inhibition of starch utilizing system in Bacteroides dorei JRO2 assessed as microbial growth at 100 uM measured at 30 mins interval with 15 secs shaking for up to 48 hrs in presence of potato starch by spectrophotometric analysis relative to untreated control; parameters: scale not given: the % may be the effect or the level left; conditions: Phocaeicola dorei
[18] = Inhibition of starch utilization system in Bacteroides dorei JRO3 assessed as bacterial growth at 0.5 uM after 14 hrs in presence of potato starch by spectrophotometric analysis relative to untreated control; parameters: scale not given: the % may be the effect or the level left; conditions: Phocaeicola dorei
[19] = Inhibition of starch utilizing system in Bacteroides dorei JRO4 assessed as microbial growth at 100 uM measured at 30 mins interval with 15 secs shaking for up to 48 hrs in presence of pullulan by spectrophotometric analysis relative to untreated control; parameters: scale not given: the % may be the effect or the level left; conditions: Phocaeicola dorei
[20] = Inhibition of starch utilization system in Bacteroides dorei JRO3 assessed as bacterial growth at 1 uM after 14 hrs in presence of potato starch by spectrophotometric analysis relative to untreated control; parameters: scale not given: the % may be the effect or the level left; conditions: Phocaeicola dorei
[21] = Inhibition of starch utilizing system in Bacteroides dorei JRO4 assessed as microbial growth at 100 uM measured at 30 mins interval with 15 secs shaking for up to 48 hrs in presence of potato starch by spectrophotometric analysis relative to untreated control; parameters: scale not given: the % may be the effect or the level left; conditions: Phocaeicola dorei
Phocaeicola dorei [22] = assay: Effect on growth of Bacteroides dorei JRO3 assessed as microbial growth at 100 uM measured at 30 mins interval with 15 secs shaking for up to 48 hrs in presence of glucose by spectrophotometric analysis relative to untreated control; assay type: organism-based; conditions: in vivo
[23] = Inhibition of starch utilization system in Bacteroides dorei JRO3 assessed as bacterial growth at 5 uM after 14 hrs in presence of potato starch by spectrophotometric analysis relative to untreated control; parameters: scale not given: the % may be the effect or the level left; conditions: Phocaeicola dorei
Phocaeicola dorei [24] = assay: Effect on growth of Bacteroides dorei JRO4 assessed as microbial growth at 100 uM measured at 30 mins interval with 15 secs shaking for up to 48 hrs in presence of glucose by spectrophotometric analysis relative to untreated control; assay type: organism-based; conditions: in vivo
[25] = Inhibition of starch utilization system in Bacteroides dorei JRO3 assessed as increase in doubling time at 10 uM in presence of pullulan by spectrophotometric analysis; conditions: Phocaeicola dorei
[26] = Inhibition of starch utilization system in Bacteroides dorei JRO3 assessed as bacterial growth at 0.5 uM after 13.5 hrs in presence of pullulan by spectrophotometric analysis relative to untreated control; parameters: scale not given: the % may be the effect or the level left; conditions: Phocaeicola dorei
[27] = Inhibition of starch utilization system in Bacteroides dorei JRO3 assessed as increase in lag time at 5 uM up to 48 hrs in presence of pullulan by spectrophotometric analysis; conditions: Phocaeicola dorei
Phocaeicola dorei [28] = assay: Effect on growth of Bacteroides dorei JRO1 assessed as microbial growth at 100 uM measured at 30 mins interval with 15 secs shaking for up to 48 hrs in presence of maltose by spectrophotometric analysis relative to untreated control; assay type: organism-based; conditions: in vivo

For `C[C@H]1O[C@H](O[C@H]2[C@H](O)[C@@H](O)[C@@H](O[C@H]3[C@H](O)[C@@H](O)C(O)O[C@@H]3CO)O[C@@H]2CO)[C@H](O)[C@@H](O)[C@@H]1N[C@H]1C=C(CO)[C@@H](O)[C@H](O)[C@H]1O` (stereo partly drawn) [ACARBOSE], the Activity [1] was 10.1%, the Activity (Phocaeicola dorei [2]) was 100% and the Activity [3] was 11.2%. For the same compound, the Activity [4] was 21.3%, the inhibition [5] was “inactive” and the Activity (Phocaeicola dorei [6]) was 100.7%. The inhibition [7] was “inactive”, the Activity [8] was 3.9% and the Activity (Phocaeicola dorei [9]) was 123.3%. It also gave an Activity [10] of 2.6%, an Activity [11] of 10.4% and an Activity (Phocaeicola dorei [12]) of 99.4%. The Activity (Phocaeicola dorei [13]) was 71.8%, the Activity [14] was 6.5% and the inhibition [15] was “inactive”. The inhibition [16] was “Active”, the Activity [17] was 3.7% and the Activity [18] was 59.9%. It also gave an Activity [19] of 4.8%, an Activity [20] of 28.2% and an Activity [21] of 2.4%. For the same compound, the Activity (Phocaeicola dorei [22]) was 118.7%, the Activity [23] was 6.6% and the Activity (Phocaeicola dorei [24]) was 105.8%. For the same compound, the inhibition [25] was “Active”, the Activity [26] was 49.9% and the inhibition [27] was “Active”. It also gave an Activity (Phocaeicola dorei [28]) of 103%.
